According to patent US8420630B2 (Boehringer Ingelheim Pharma GmbH & Co. KG, priority 2001, dated 2013):

Biological target: T1, CDK1/cyclinB1 (Homo sapiens, UniProt P06493)
T1 construct: made in house; host or cells: High Five insect cells (Trichoplusia ni), baculovirus coinfection
Experiment: Cyclin B1-CDK1 kinase inhibition test
Type: biochemical
Settings: CDK1 tests (Example 13); recombinant cyclin B1/CDK1, substrate histone H1; read-out: CDK1/cyclinB1 IC50 value
How it was run: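 Baculovirus-expressed CDK1/cyclin B1 phosphorylated histone H1 with ATP mix containing 0.045 mM ATP plus ^33P-ATP for 30 min at 30 °C. Protein was precipitated with TCA and filter-bound radioactivity read by scintillation counting. Olomoucin at 30 and 300 μM final served as internal control.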

T1 sequence (P06493 whole entry): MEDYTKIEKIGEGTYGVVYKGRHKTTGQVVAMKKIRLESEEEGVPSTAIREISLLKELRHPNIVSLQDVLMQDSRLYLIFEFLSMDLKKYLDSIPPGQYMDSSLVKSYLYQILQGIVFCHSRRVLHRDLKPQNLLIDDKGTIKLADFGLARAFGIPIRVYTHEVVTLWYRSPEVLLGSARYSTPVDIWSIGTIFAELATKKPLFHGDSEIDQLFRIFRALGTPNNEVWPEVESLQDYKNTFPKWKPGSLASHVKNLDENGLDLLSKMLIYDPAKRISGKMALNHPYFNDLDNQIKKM
T1 sequence (P14635 whole entry partner): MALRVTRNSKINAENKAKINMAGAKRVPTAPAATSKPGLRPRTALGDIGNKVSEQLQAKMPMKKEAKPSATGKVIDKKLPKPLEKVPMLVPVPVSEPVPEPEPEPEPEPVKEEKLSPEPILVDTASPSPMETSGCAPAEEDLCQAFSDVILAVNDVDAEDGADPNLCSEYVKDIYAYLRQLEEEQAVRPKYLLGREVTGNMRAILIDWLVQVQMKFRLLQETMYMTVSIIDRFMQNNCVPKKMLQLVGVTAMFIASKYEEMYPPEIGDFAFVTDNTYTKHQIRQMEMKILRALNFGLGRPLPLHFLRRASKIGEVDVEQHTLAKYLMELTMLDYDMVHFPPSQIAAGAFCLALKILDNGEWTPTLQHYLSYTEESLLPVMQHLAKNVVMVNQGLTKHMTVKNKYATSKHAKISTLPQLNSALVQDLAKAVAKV

Row | Compound | IC50
1 | CC(=O)NCCNc1nc(Nc2ccc(S(=O)(=O)N3CC(C)NC(C)C3)cc2)ncc1C(F)(F)F (stereo not drawn) [Example 2(061), N-(2-{2-[4-(3,5-Dimethyl-piperazin-1-sulphonyl)-phenylamino]-5-trifluoromethyl-pyrimidin-4-ylamino}-ethyl)-acetamide] | < 100 nM
2 | CC(=O)NCCNc1nc(Nc2ccccc2)ncc1C(F)(F)F [Example 2(062), N-[2-(2-phenylamino-5-trifluoromethylpyrimidin-4-ylamino)-ethyl]-acetamide] | < 100 nM
3 | Cc1cnc(Nc2ccc3cn[nH]c3c2)nc1NCCCN1CCCC1=O [Example 2(075), 1-{3-[2-(1H-indazol-6-ylamino)-5-methyl-pyrimidin-4-ylamino]-propyl}-pyrrolidin-2-one] | < 100 nM
4 | O=C1CCCN1CCCNc1nc(Nc2ccc(-c3nn[nH]n3)cc2)ncc1C(F)(F)F [Example 2(076), 1-(3-{2-[4-(2H-tetrazol-5-yl)-phenylamino]-5-trifluoromethyl-pyrimidin-4-ylamino}-propyl)-pyrrolidin-2-one] | < 100 nM
5 | O=C1CCCN1CCCNc1nc(Nc2ccc3cn[nH]c3c2)ncc1Br [Example 2(106), 1-{3-[5-Bromo-2-(1H-indazol-6-ylamino)-pyrimidin-4-ylamino]-propyl}-pyrrolidin-2-one] | < 100 nM
6 | CN(C)S(=O)(=O)c1ccc(Nc2ncc(Cl)c(NCCCN3CCCC3=O)n2)cc1 [Example 2(109), 4-{5-Chloro-4-[3-(2-oxo-pyrrolidin-1-yl)-propylamino]-pyrimidin-2-ylamino}-N,N-dimethyl-phenylsulphonamide] | < 100 nM
7 | Clc1cnc(Nc2ccc3cn[nH]c3c2)nc1N1CCc2[nH]cnc2C1 [Example 2(134), [5-Chloro-4-(1,4,6,7-tetrahydro-imidazo[4,5-c]pyridin-5-yl)-pyrimidin-2-yl]-(1H-indazol-6-yl)-amine] | < 100 nM
8 | CN(C)S(=O)(=O)c1ccc(Nc2ncc(Cl)c(N3CCc4[nH]cnc4C3)n2)cc1 [Example 2(136), 4-[5-Chloro-4-(1,4,6,7-tetrahydro-imidazo[4,5-c]pyridin-5-yl)-pyrimidin-2-ylamino]-N,N-dimethyl-phenylsulphonamide] | < 100 nM
9 | Brc1cnc(Nc2ccc3cn[nH]c3c2)nc1N1CCc2nc[nH]c2CC1 [Example 2(141), [5-Bromo-4-(4,5,7,8-tetrahydro-1H-imidazo[4,5-d]azepin-6-yl)-pyrimidin-2-yl]-(1H-indazol-6-yl)-amine] | < 100 nM
10 | Brc1cnc(Nc2ccc3cn[nH]c3c2)nc1N1CCc2[nH]cnc2C1 [Example 2(142), [5-Bromo-4-(1,4,6,7-tetrahydro-imidazo[4,5-c]pyridin-5-yl)-pyrimidin-2-yl]-(1H-indazol-6-yl)-amine] | < 100 nM
11 | C#Cc1cnc(Nc2ccc(S(=O)(=O)N(C)C)cc2)nc1NCCNC(C)=O [Example 4(001), N-{2-[2-(4-dimethylsulphamoyl-phenylamino)-5-ethynyl-pyrimidin-4-ylamino]-ethyl}-acetamide] | < 100 nM
12 | CS(=O)(=O)NCCNc1nc(Nc2ccc(Cl)c(Cl)c2)ncc1C(F)(F)F [Example 7(001), N-(2-[2-(3,4-dichloro-phenylamino)-5-trifluoromethyl-pyrimidin-4-ylamino]-ethyl)-methanesulphonamide] | < 100 nM
13 | CC(C)C(=O)NCCCNc1nc(Nc2ccc3cnn(C)c3c2)ncc1C(F)(F)F [Example 7(002), N-{3-[2-(1-methyl-1H-indazol-6-ylamino)-5-trifluoromethyl-pyrimidin-4-ylamino]-propyl}-isobutyramide] | < 100 nM
14 | CCC(=O)NCCCNc1nc(Nc2ccc3cnn(C)c3c2)ncc1C(F)(F)F [Example 7(006), N-{3-[2-(1-methyl-1H-indazol-6-ylamino)-5-trifluoromethyl-pyrimidin-4-ylamino]-propyl}-propionamide] | < 100 nM
15 | CC(=O)NCCCNc1nc(Nc2ccc(Cl)c(Cl)c2)ncc1C(F)(F)F [Example 7(010), N-(3-[2-(3,4-dichloro-phenylamino)-5-trifluoromethyl-pyrimidin-4-ylamino]-propyl)-acetamide] | < 100 nM
